# Assay results taken from patent US20240190855A1 (Relay Therapeutics, Inc., priority 2021, published 2024).
# Target: T1, CDK2/Cyclin E complex (Homo sapiens, UniProt P24941)
# T1 construct: purchased Eurofins 14-475
# Test: CDK2/Cyclin E fluorescence-based microfluidic mobility shift assay (CDK2 Biochemical Caliper Assay)
# Conditions: read-out: Biochemical CDK2/CyclinE Caliper IC50
# In short: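 Wild-type CDK2/Cyclin E was preincubated with compound and ATP for 30 min at RT before the 5-FAM-QSPKKG peptide was added. Final concentrations were 0.1 nM enzyme, 2000 uM ATP, 1.5 uM peptide and 1% DMSO. After 20 hr at RT and EDTA stop, substrate conversion was read by microfluidic mobility shift over an 11-point, 3-fold dilution series.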
row,IC50 [µM],SMILES
1,≤ 0.1,C[C@@H](NC(=O)O[C@H]1CO[C@@H](c2cc(NC(=O)c3cc(OCC(F)F)nn3C)n[nH]2)C1)C1CC1 [Example 915]
2,≤ 0.1,C[C@H](NC(=O)O[C@H]1CO[C@@H](c2cc(NC(=O)c3cc(OCC(F)F)nn3C)n[nH]2)C1)C1CC1 [Example 916]
3,≤ 0.1,C[C@@H](NC(=O)O[C@H]1CO[C@@H](c2cc(NC(=O)c3cc(OCC(F)(F)F)nn3C)n[nH]2)C1)C1CC1 [Example 917]
4,≤ 0.1,C[C@H](NC(=O)O[C@H]1CO[C@@H](c2cc(NC(=O)c3cc(OCC(F)(F)F)nn3C)n[nH]2)C1)C1CC1 [Example 918]
5,≤ 0.1,C[C@H](NC(=O)O[C@@H]1CO[C@H](c2cc(NC(=O)c3cc(OCC(F)F)nn3C)n[nH]2)C1)C1CC1 [Example 919]
6,≤ 0.1,C[C@H](NC(=O)O[C@@H]1CO[C@H](c2cc(NC(=O)c3cc(OCC(F)(F)F)nn3C)n[nH]2)C1)C1CC1 [Example 920]
7,≤ 0.1,COCc1cn2c(Nc3cc([C@@H]4C[C@H](OC(=O)NC5(C)CC5)CO4)[nH]n3)nccc2n1 [Example 921]
8,≤ 0.1,CC1(NC(=O)O[C@@H]2CO[C@H](c3cc(Nc4nccn5nc(COC(F)(F)F)cc45)n[nH]3)C2)CC1 [Example 922]

# Tested on: CDK2-independent (SKOV3, COV504, COV644) versus CDK2-dependent (COV318, OVCAR3, HCC1569) cell lines
# Test: Cell proliferation selectivity assay (CyQUANT Direct Cell Proliferation Assay)
# Assay type: cell-based
# Conditions: mean of IC50 ratios between each CDK2-independent versus CDK2-dependent cell line; 120 hours incubation
# Experimental: Compounds described herein were also tested in cell proliferation selectivity assays. OVCAR3, HCC1569, and SKOV3 cell lines were obtained from ATCC and cultured as recommended by supplier. COV318, COV504, and COV644 cell lines were obtained from Sigma-Aldrich and were cultured as recommended by supplier. The genetic background and dependency of each cell line was determined using publicly available databases: cBioPortal and DepMap. […] All six cell lines are CDK1-dependent given that CDK1 is an essential gene. Proliferation assay was carried out by seeding cells into 384-well plates at predetermined density (ranging from 150 to 1500 cells per well) in corresponding culture media, followed by brief centrifugation at 1000×g, and culturing cells for 24 hours at 37° C., 5% CO2. The following day, compounds were serially diluted (1l-point, 3-fold dilution scheme with 20 μM as top concentration) and dispensed directly onto cells using Echo 555 acoustic liquid handler (Labcyte). The cells were incubated with the compounds at 37° C., 5% CO2 for 120 hours. Relative number of viable cells in each well was determined using CyQUANT Direct Cell Proliferation Assay Kit (Invitrogen) per manufacturers protocol. The plates were read on EnVision 2105 multimode plate reader (Perkin Elmer) using FITC filter set. Dose response curve fitting and IC50 calculation was done using Genedata Screener software. Proliferation selectivity (i.e. selectivity index) for individual compound was derived as a mean of its IC50 ratios between each CDK2-independent versus CDK2-dependent cell line.
row,SMILES,Proliferation selectivity Index
1,"CC(C)NC(=O)O[C@@H]1CC[C@H](c2cc(Nc3ncnc4ncccc34)n[nH]2)C1 (single isomer, unassigned) [Example I-4]",45.05
2,"COCc1cc2c(Nc3cc([C@H]4CC[C@@H](OC(=O)NC(C)C)C4)[nH]n3)nccn2n1 (single isomer, unassigned) [Example I-10]",24.36
3,"CC(C)NC(=O)O[C@@H]1CC[C@H](c2cc(Nc3nccc4nccn34)n[nH]2)C1 (single isomer, unassigned) [Example I-11]",24.26
4,"CC(C)NC(=O)O[C@@H]1CC[C@H](c2cc(Nc3nccn4nccc34)n[nH]2)C1 (single isomer, unassigned) [Example I-17]",21.85
5,"COCc1nc2ccnc(Nc3cc([C@@H]4CC[C@H](OC(=O)NC(C)C)C4)[nH]n3)c2s1 (single isomer, unassigned) [Example I-19]",20.52
6,"CC(C)NC(=O)O[C@H]1CC[C@@H](c2cc(Nc3ncnc4ncccc34)n[nH]2)C1 (single isomer, unassigned) [Example I-20]",20.15
7,"Cc1cc(CC(=O)Nc2cc([C@@H]3CC[C@H](Oc4nscc4C4CC4)C3)[nH]n2)on1 (single isomer, unassigned) [Example I-21]",19.98
8,"CC(C)NC(=O)O[C@@H]1CC[C@H](c2cc(Nc3ncnc4ncsc34)n[nH]2)C1 (single isomer, unassigned) [Example I-24]",19.46
9,"CC(C)NC(=O)O[C@H]1CC[C@@H](c2cc(Nc3nccc4ncsc34)n[nH]2)C1 (single isomer, unassigned) [Example I-28]",18.45
10,"COCc1cc2c(Nc3cc([C@H]4C[C@@H](OC(=O)N[C@@H](C)CC(F)(F)F)CO4)[nH]n3)nccn2n1 (single isomer, unassigned) [Example I-33]",17.57
11,"COCc1cc2c(Nc3cc([C@H]4C[C@@H](OC(=O)N[C@]5(C)CC5(F)F)CO4)[nH]n3)nccn2n1 (single isomer, unassigned) [Example I-34]",17.33
12,CC[C@H](C)NC(=O)O[C@H]1CO[C@@H](c2cc(Nc3ccc4c(n3)C(C)(C)NC4=O)n[nH]2)C1 [Example I-1],54.25
13,COCc1cc2c(Nc3cc([C@H]4C[C@@H](OC(=O)N5CCC5(C)C)CO4)[nH]n3)nccn2n1 [Example I-2],51.61
14,C[C@H](NC(=O)O[C@H]1CO[C@@H](c2cc(Nc3ccc4c(n3)C(C)(C)NC4=O)n[nH]2)C1)C1CC1 [Example I-3],45.44
15,CC1(NC(=O)O[C@H]2CO[C@@H](c3cc(Nc4ccn5nccc5n4)n[nH]3)C2)CC1 [Example I-5],32.74
16,C=C(C)c1ccncc1O[C@H]1CC[C@@H](c2cc(NC(=O)Cc3cc(C)no3)n[nH]2)C1 [Example I-6],31.48
17,CC1(NC(=O)O[C@@H]2CO[C@H](c3cc(Nc4nccc5nccn45)n[nH]3)C2)CC1 [Example I-7],27.71
18,CC1(NC(=O)O[C@H]2CO[C@@H](c3cc(Nc4ccc5nccn5n4)n[nH]3)C2)CC1 [Example I-8],27.56
19,COCc1cc2c(Nc3cc([C@H]4C[C@@H](OC(=O)N[C@@H](C)C(F)(F)F)CO4)[nH]n3)nccn2n1 [Example I-9],24.63
20,COCC1(NC(=O)O[C@@H]2CO[C@H](c3cc(NC(=O)c4cc(COC(F)(F)F)nn4C)n[nH]3)C2)CC1 [Example I-12],23.98
21,C[C@H](NC(=O)O[C@@H]1CO[C@H](c2cc(NC(=O)c3cc(COC(F)(F)F)nn3C)n[nH]2)C1)C1CC1 [Example I-13],23.74

row,SMILES,Proliferation selectivity Index
1,Cn1ncc2cnc(Nc3cc([C@H]4C[C@@H](OC(=O)NC5(C)CC5)CO4)[nH]n3)cc21 [Example I-14],23.53
2,COCc1cc2c(Nc3cc([C@H]4C[C@@H](OC(=O)NC5(CC(F)(F)F)CC5)CO4)[nH]n3)nccn2n1 [Example I-15],23.43
3,COCc1nc2ccnc(Nc3cc([C@H]4C[C@@H](OC(=O)NC(C)C)CO4)[nH]n3)c2s1 [Example I-16],22.96
4,Cn1nc(COC(F)(F)F)cc1C(=O)Nc1cc([C@@H]2C[C@H](OC(=O)NC3(C)CC3)CO2)[nH]n1 [Example I-18],21.63
5,CC(C)NC(=O)OC[C@H]1C[C@@H](c2cc(Nc3nccc4ncsc34)n[nH]2)C1 [Example I-22],19.69
6,COCc1cc2c(Nc3cc([C@H]4C[C@@H](OC(=O)N[C@H](C)C(F)(F)F)CO4)[nH]n3)nccn2n1 [Example I-23],19.67
7,Cn1nc(COC(F)(F)F)cc1C(=O)Nc1cc([C@@H]2C[C@H](OC(=O)NC3(C)COC3)CO2)[nH]n1 [Example I-25],18.78
8,COCc1cc2c(Nc3cc([C@@H]4C[C@H](Oc5nncn5C(C)(C)C)CO4)[nH]n3)nccn2n1 [Example I-26],18.65
9,CC(C)NC(=O)OC[C@H]1C[C@@H](c2cc(NC(=O)c3cc(COC(F)(F)F)nn3C)n[nH]2)C1 [Example I-27],18.56
10,COCc1cc2c(Nc3cc([C@H]4C[C@@H](OC(=O)NC(C)(C)C#N)CO4)[nH]n3)nccn2n1 [Example I-29],18.45
11,Cn1nc(OCC(F)F)cc1C(=O)Nc1cc([C@H]2C[C@@H](OC(=O)NC34CC(C3)C4)CO2)[nH]n1 [Example I-30],18.27
12,CC1(NC(=O)O[C@H]2CO[C@@H](c3cc(Nc4nccc5nccn45)n[nH]3)C2)CC1 [Example I-31],17.88
13,CC(C)NC(=O)O[C@@H]1CO[C@H](c2cc(Nc3nccc4ncsc34)n[nH]2)C1 [Example I-32],17.60
14,CCC1(NC(=O)O[C@H]2CO[C@@H](c3cc(Nc4nccn5nc(COC)cc45)n[nH]3)C2)CC1 [Example I-35],17.20
15,C#CC1(NC(=O)O[C@H]2CO[C@@H](c3cc(Nc4nccn5nc(COC)cc45)n[nH]3)C2)CC1 [Example I-36],16.79
16,COCc1cc2c(Nc3cc([C@H]4C[C@@H](Oc5nncn5C5(C(F)(F)F)CC5)CO4)[nH]n3)nccn2n1 [Example I-37],16.55
17,COCc1cc2c(Nc3cc([C@H]4C[C@@H](OC(=O)NC(C)C)CO4)[nH]n3)nccn2n1 [Example I-38],16.55
18,CC(C)n1cnnc1OC[C@H]1C[C@@H](c2cc(Nc3nccn4nccc34)n[nH]2)C1 [Example I-39],16.17
19,COCc1cc2c(Nc3cc([C@@H]4C[C@H](Oc5nncn5C5(C)CC5)CO4)[nH]n3)nccn2n1 [Example I-40],16.06
20,CC(C)NC(=O)O[C@H]1CO[C@@H](c2cc(Nc3nccc4ncsc34)n[nH]2)C1 [Example I-41],15.98
21,COCc1cc2c(Nc3cc([C@H]4C[C@@H](OC(=O)NC(C)(C)C(F)(F)F)CO4)[nH]n3)nccn2n1 [Example I-42],15.77
